# Source: patent US20210087279A1, “REGULATABLE CHIMERIC ANTIGEN RECEPTOR” (Novartis AG, priority 2014, published 2021)
# Key:
# Format in all cases: cell-based
# [1] = tested on: luciferase-expressing Nalm6 (human pre-B ALL) cell line; assay: Killing assay with RCAR-expressing primary T cells; details: effector:target 1:1; 20 hours
# Procedure: The ability for RCAR T cells (RCAR T cell generation described above) to target and kill tumor cells was assessed in vitro. A luciferase-based assay was used, with tumor cell lines expressing luciferase reporters. Target cells (tumor cells) were plated at 25,000 cells/well. RCAR T cells, as well as standard CAR-expressing T cells and T cells expressing no CARs were added at the effector:target ratio 1:1 in duplicates. Additionally, RAD001 was added in seven 5-fold dilution steps, starting at 50 nM. One duplicate received pure medium, no RAD001. The cells were cultured for 20 hours, after which the luminescence of each well was detected to determine the percentage of target cells killed (BrightGlo, Promega protocol). Specific killing (%)=[…]. The luciferase-expressing Nalm6 (human pre-B ALL) cell line was used as the target cell.
# [2] = tested on: reporter under NFAT control in JNL cells; assay: Dimerization molecule dose response, single vector construct 143775 in JNL cells, CD19 target; details: nM to sub-nM doses
# Text: The constructs and viral particles were made and tested essentially as described in Example 11. Viral particles were introduced into JNL cells and evaluated for activity essentially as described in Example 1 except that the target was CD19 (as opposed to EGFRviii).
# Construct 143775 was introduced into cells and the affect of dimerization molecule concentration on activation evaluated essentially as described in Example 14.
# [3] = tested on: NFAT activity in Jurkat cells with NFAT-LUC reporter (JNL); assay: Activation of RCAR with extracellular FKBP/FRB switch by RAD001; details: for RAD001 dose at which NFAT activity peaked: 0-50 nM tested
# Procedure: In this example, the activation of RCAR with an extracellular switch was evaluated in the presence of the dimerization molecule RAD001. Four RCARs were tested: two half switch constructs, e.g., with the dimerization switch in both orientations (FIG. 34A), and two full switch constructs, e.g., with the dimerization switch in both orientations (FIG. 34B), where the dimerization switch is an extracellular FKBP/FRB dimerization, as depicted in FIGS. 34A and 34B. In the half-switch constructs, the antigen binding member comprises a scFV domain, an extracellular switch domain, a transmembrane domain, an intracellular costimulatory signaling domain 4-1BB, and the intracellular signaling member comprises an extracellular switch domain, a transmembrane domain, and an intracellular primary signaling domain, CD3zeta (FIG. 34A). In the full-switch constructs, the antigen binding member comprises a scFv domain, an extracellular switch domain, and a transmembrane domain, and the intracellular signaling member comprises an extracellular switch domain, a transmembrane domain, an intracellular costimulatory signaling domain, 4-1BB, and an intracellular primary signaling domain, CD3zeta (FIG. 34B).
# The RCAR constructs were expressed in a Jurkat reporter cell line. Jurkat cells with NFAT-LUC reporter (JNL) were grown to the density of 0.5×10^6/ml in Jurkat cell growth media with puromycin at 0.5 μg/ml. For each transfection 2.5×10^6 cells were spin down at 100 g for 10 minutes. Two μg of DNA per RCAR construct were used per transfection. Amaxa Nucleofector solution V and supplement I was mixed and 100 μl was added into the tube with DNA construct. The mixture was then added to the cells and transferred to the electroporation cuvette. Electroporation was done under setting X-001 using Amaxa Nucleofector II Device. […]
# After one hour, RAD001 compound was applied at various concentrations: 0 nM, 0.01 nM, 0.03 nM, 0.1 nM, 0.3 nM, 1 nM, 5 nM, and 50 nM. […] The samples were incubated for 5 min at 37° C. and then luminescence was measured using Envision plate reader.
# [4] = tested on: NFAT activity in Jurkat cells with NFAT-LUC reporter (JNL); assay: Activation of RCAR half switches (intracellular FKBP/FRB) by RAD001; details: both half switches (CD28 or 4-1BB); 0-10 nM tested
# Procedure: In this example, the activation of a RCAR half switch was evaluated in the presence of the dimerization molecule RAD001. Two RCAR constructs were tested where the dimerization switch is an intracellular FKBP/FRB dimerization switch, and the switch domains are located in both orientations with respect to the antigen binding member and the intracellular member. For example, the antigen binding member comprises a scFV domain, a transmembrane domain, an intracellular switch domain, and an intracellular costimulatory signaling domain; and the intracellular signaling member comprises an […] switch domain, a transmembrane domain, and an intracellular primary signaling domain, e.g., CD3zeta (FIG. 36A).
# Jurkat cells with NFAT-LUC reporter (JNL) were grown to the density of 0.5×10^6/ml in Jurkat cell growth media with puromycin at 0.5 μg/ml. For each transfection 2.5×10^6 cells were spin down at 100 g for 10 minutes. Two μg of DNA per construct were used per transfection. […]
# After one hour, RAD001 compound was delivered at 50 nM when testing RCARs with different costimulatory signaling domains (FIGS. 36A-B), or various concentrations: 0 nM, 0.01 nM, 0.03 nM, 0.1 nM, 0.3 nM, 1 nM, 3 nM, and 10 nM (FIGS. 37A-B). […] The samples were incubated for 5 min at 37° C. and then luminescence is measured using Envision plate reader.
compound,measurement,setting,value
"CO[C@H]1C[C@@H]2CC[C@@H](C)[C@@](O)(O2)C(=O)C(=O)N2CCCC[C@H]2C(=O)O[C@H]([C@H](C)C[C@@H]2CC[C@@H](OCCO)[C@H](OC)C2)CC(=O)[C@H](C)/C=C(\C)[C@@H](O)[C@@H](OC)C(=O)[C@H](C)C[C@H](C)/C=C/C=C/C=C/1C [RAD001, (1R,9S,12S,15R,16E,18R,19R,21R,23S,24E,26E,28E,30S,32S,35R)-1,18-dihydroxy-12-{(1R)-2-[(1S,3R,4R)-4-(2-hydroxyethoxy)-3-methoxycyclohexyl]-1-methylethyl}-19,30-dimethoxy-15,17,21,23,29,35-hexamethyl-11,36-dioxa-4-aza-tricyclo[30.3.1.04,9]hexatriaconta-16,24,26,28-tetraene-2,3,10,14,20-pentaone]",RAD001 concentration at maximal killing by RCAR-expressing T cells,[1],around 1 nM
same,activation,[2],effective at a broad range of concentrations
same,RAD001 dose at which NFAT activity peaked,[3]; extracellular RCAR full switches,1 nM
same,inhibition of NFAT activity at higher dosages,"[3]; extracellular half switch 1, 5 nM and 50 nM",no inhibition of activity
same,RAD001 dose at which NFAT activity peaked,[3]; extracellular half switch 2,1 nM
same,RAD001 concentration at which NFAT activity peaked,[4],1 nM
